Reference: patent publication US20100029590A1, “METHODS FOR TREATING OR PREVENTING HEMORRHAGIC CYSTITIS USING A GLYCEROPHOSPHATE SALT” (PRELIEF INC., priority 2007, published 2010)

System: patients suffering from radiation cystitis
Assay: Clinical observation of radiation cystitis patients after prostatic brachytherapy given oral Prelief® (CGP): average number of micturitions per night and symptoms
Type: in vivo, human
Conditions: for frequency of urination: six patients
Description: This example depicts a method of using calcium glycerophosphate (CGP) in treating radiation cystitis in a clinical setting. Methods similar to that exemplified herein, however, is equally applicable to using any glycerophosphate salt in treating or preventing any type of hemorrhagic cystitis.
All six patients, aging from 51 to 74 year old at the time, were under prostatic brachytherapy treatment. […] Two Prelief® tablets, each containing about 0.335 gram CGP, were orally administered to each patient three times a day starting at about 0 to 8 months after the brachytherapy. […] Some patients were also treated with another therapy after the radiation, such as by a stent, or with the administration of AINES, Trospium Chloride, or Tamsulosina. On their post brachytherapy visitations, each patient was asked, among other things, the average number of micturitions per night.
This is in comparison to up to 12 times per night expected micturations in severe cases of this type when patients are given regular medications. The frequency of urination was further reduced by continuing oral administration of CGP.
14, 2002. […] Oral administration of CGP was again reported to be effective in reducing symptoms of hemorrhagic cystitis, e.g., the frequency of urination was reduced to about 7 times or about 2.5 times per night after oral administration of CGP for about 4 months or about 9 months, respectively, following the removal of the stent.

In the case of calcium glycerophosphate [CGP], the “frequency of urination, patient #1” value (patient #1, about 1 month following removal of a stent (increased symptoms)) is reported as “about 11 times per night”, the “frequency of urination, patient #1” value (patient #1, about 3 months following brachytherapy, before oral CGP (baseline)) is reported as “about 11 times per night” and the “frequency of urination, patient #1” value (patient #1, after oral administration of CGP for about 5 months) is reported as “about 7 times per night”. For the same substance, the “frequency of urination, patient #1” value (patient #1, oral CGP for about 4 months following removal of the stent) was “about 7 times per night”, the “frequency of urination, patient #1” value (patient #1, oral CGP for about 9 months following removal of the stent) was “about 2.5 times per night” and the “symptoms of radiation cystitis” value (reported by each of the six patients after oral administration of CGP) was “Reduced symptoms of radiation cystitis”. The pain in bladder (reported by the patients, oral CGP (data not shown)) was “reduced pain in bladder”, the frequency of urination (after oral administration of CGP for about three months) was 4.5-7 times per night and the frequency of urination (before oral administration of CGP (baseline)) was 8-11 times per night. The frequency of urination (succeeding seven months of oral CGP) was 3-7 times per night.
